Results: patent US20230242474A1, “LIPID COMPOUND AND THE COMPOSITION THEREOF” (GUANGZHOU RIBOBIO CO., LTD, priority 2020, published 2023)

Assays:
[1] = format: physicochemical; conditions: Table 1; for Size (nm): lipid nanoparticle of the ionizable lipid (ionizable lipid/phospholipid/PEG lipid/structural lipid 50/10/1.5/38.5 %) with mRNA; for Encapsulated percentage (%) / PDI: lipid nanoparticle of the ionizable lipid with mRNA
BALB/c mice = assay: Transfection efficiency: in vivo bioluminescence of luciferase mRNA encapsulated by different LNP; conditions: for Total photons number, Leg: intramuscular injection; for Average fluorescence intensity, Leg (intramuscular injection) / Average fluorescence intensity, Liver (tail vein injection): 10 μg/mice
Description: All animals were kept in adaptive feeding for more than 7 days before experiments, free to uptake food and drink water during experimental period, illumination 12/12 h alternating light and dark, room temperature was 20-26° C., humidity was 40-70%.
Experimental method: female BALB/c mice, encapsulated luciferase mRNA with different LNP by four different administrations which included subcutaneous injection (under the armpit), tail vein injection, intraperitoneal injection, intramuscular injection (the tibialis anterior muscle of mouse hind leg); 3, 6, 24, 48 h after administration, applied in vivo fluorescence imaging system (brand: Bruker, model: XTREME) for bioluminescence detection, the specific steps were as follows: substrate preparation: took appropriate amount of substrate Luciferin (brand: Promega) and added saline to make a 10 mg/ml solution, avoided light, injected 100 μl solution into each mouse intraperitoneally. […] Put the anesthetized mouse into machine, set the bioluminescence setting and took the photos, captured the photograph and then adjusted the upper and lower values of photograph, then collected data on the concentrated distribution of fluorescence (e.g., fluorescence intensity, average photons number, and total photons number) and processed data. Statistical analysis: the in vivo imaging outcome were shown in the fluorescence intensity or average of total photons number of different animal in the same tested group, which were used to judge whether the fluorescence intensity or total photon number of luciferase mRNA encapsulated by different LNP were high or low.
The fluorescence intensity and total photons number reflects the transfection efficiency of LNP, the value is higher, referring to the efficiency of delivering encapsulated substance into cell by LNP is higher.

Structure (SMILES)	Size (nm) [1]	Encapsulated percentage (%) [1]	PDI [1]	Total photons number, Leg (BALB/c mice; 5 μg/mice, 3 h)	Total photons number, Leg (BALB/c mice; 5 μg/mice, 6 h)	Total photons number, Leg (BALB/c mice; 5 μg/mice, 24 h)	Average fluorescence intensity, Leg (intramuscular injection) (BALB/c mice; 3 h after administration)	Average fluorescence intensity, Liver (tail vein injection) (BALB/c mice; 3 h after administration)	Average fluorescence intensity, Leg (intramuscular injection) (BALB/c mice; 6 h after administration)	Average fluorescence intensity, Liver (tail vein injection) (BALB/c mice; 6 h after administration)	Average fluorescence intensity, Leg (intramuscular injection) (BALB/c mice; 24 h after administration)	Average fluorescence intensity, Liver (tail vein injection) (BALB/c mice; 24 h after administration)	Total photons number, Leg (BALB/c mice; 1 μg/ mice, 6 h)	Total photons number, Leg (BALB/c mice; 1 μg/ mice, 3 h)	Total photons number, Leg (BALB/c mice; 1 μg/ mice, 24 h)
CCCCC/C=C/C/C=C/CCCCCCCCN(CCO)CCCCCCCC(=O)OCC(COCCCCCC)(COCCCCCC)COCCCCCC [A20]	77.17 nm	97.09%	0.121	5.99E+08	5.65E+08	2.03E+08									
CCCCCCCCCCCOC(=O)CCCCCN(CCCO)CCCCCCCC(=O)OC(CCCCCCCC)CCCCCCCC [A4, reference compound]	131.1 nm	79.24%	0.110				1847.5	7962.6	1956.2	7745.9	1009.7	326.4			
CCCCCCCCC(CCCCCCCC)OC(=O)CCCCCCCN(CCO)CCCCCCCC(=O)OC(COCCCCCC)COCCCCCC [A13]	96.87 nm	95.51%	0.146										3.66E+09		
CCCCCCOCC(COCCCCCC)NC(=O)CCCCCCCN(CCCO)CCCCCCCC(=O)OC(COCCCCCC)COCCCCCC [A25]	105.3 nm	83.60%	0.094	4.23E+08	2.49E+08	9.50E+07									
CCCCCCCCCCCCCCCCN(CCO)CCCCCC(=O)OCCCCCCCCCCC [A1]	127.7 nm	88.79%	0.090				61.3	20.4	80.6	27.80	38.9	15.9			
CCCCCCCCCCCOC(=O)CCCCCN(CCO)CCCCCCCC(=O)OC(COCCCCCC)COCCCCCC [A11]													1.33E+09		
CCCCCCOCC(COCCCCCC)OC(=O)CCCCCCCN(C)CCCNc1c(NCCCNc2c(NCCCN(C)CCCCCCCC(=O)OC(COCCCCCC)COCCCCCC)c(=O)c2=O)c(=O)c1=O [A32]	128.7 nm	94.19%	0.07												
CCCCC/C=C/C/C=C/CCCCCCCCN(CCCO)CCCCCCCC(=O)OCC(COCCCCCC)(COCCCCCC)COCCCCCC [A21]	78.3 nm	97.20%	0.098	9.07E+08	7.11E+08	1.62E+08									
CCCCCCCCC(CCCCCCCC)OC(=O)CCCCCCCN(CCCO)CCCCCCCC(=O)OC(COCCCCCC)COCCCCCC [A17]	109.5 nm	92.99%	0.1037												
CCCCCCOCC(COCCCCCC)OC(=O)CCCCCCCN(CCCCCCCC(=O)OC(COCCCCCC)COCCCCCC)CCCNc1c(NCCCNc2c(NCCCN(CCCCCCCC(=O)OC(COCCCCCC)COCCCCCC)CCCCCCCC(=O)OC(COCCCCCC)COCCCCCC)c(=O)c2=O)c(=O)c1=O [A30]	110.1 nm	98.14%	0.28												
CCCCC/C=C/C/C=C/CCCCCCCCN(CCO)CCCCCC(=O)OCCCCCCCCCCC [A9]	129.4 nm	93.35%	0.120				461.4	198.9	432.0	252.7	178.3	14.6			
CCCCCCCCC(CCCCCCCC)OC(=O)CCCCCCCN(CCCO)CCCCCCCC(=O)OC(CCCCCCCC)CCCCCCCC [A5]	135.0 nm	90.11%	0.090				675.7	2231.2	1566.4	3738.2	892.2	73.5			
CCCCCCOCC(COCCCCCC)OC(=O)CCCCCCCN(CCCCCCCC(=O)OC(COCCCCCC)COCCCCCC)CCCNc1c(NCCCNc2c(NC)c(=O)c2=O)c(=O)c1=O [A29]	126.4 nm	89.98%	0.05												
CCCCCCCCOCC(COCCCCCCCC)OC(=O)CCCCCCCN(C)CCCNc1c(NCCCN(C)CCCCCCCC(=O)OC(COCCCCCCCC)COCCCCCCCC)c(=O)c1=O [A31]													2.65E+08	1.58E+08	8.43E+07
CCCCC/C=C\C/C=C\CCCCCCCCC(CCCCCCCC/C=C\C/C=C\CCCCC)OC(=O)CCCN(C)C [MC3, reference compound]	86.7 nm	92.00%	0.10										7.41E+08	3.43E+08	2.86E+08
CCCCC/C=C/C/C=C/CCCCCCCCN(CCO)CCCCCCCC(=O)OC(COCCCCCC)COCCCCCC [A10]	121.6 nm	82.65%	0.104										3.17E+09		
CCCCC/C=C/C/C=C/CCCCCCCCN(CCO)CCCCCCCC(=O)OC(CCCCCCCC)CCCCCCCC [A8, reference compound]	142.2 nm	76.10%	0.120				1111	6850.3	2161.8	10174.4	1294.9	220.8			
CCCCCCCCC(CCCCCCCC)OC(=O)CCCCCCCN(CCO)CCCCCCCC(=O)OC(CCCCCCCC)CCCCCCCC [A2, reference compound]	145.5 nm	87.86%	0.100				1146	5325.2	1208.2	5934.7	377.7	162.6			
CCCCCCOCC(COCCCCCC)(COCCCCCC)COC(=O)CCCCCCCN(CCO)CCCCCCCC(=O)OCC(COCCCCCC)(COCCCCCC)COCCCCCC [A24]	78.69 nm	96.77%		1.94E+08	1.56E+08	6.31E+07									
CCCCC/C=C/C/C=C/CCCCCCCCN(CCCO)CCCCCC(=O)OCCCCCCCCCCC [A12]	119.3 nm	86.53%	0.083										6.91E+08		
CCCCCCOCC(COCCCCCC)OC(=O)CCCCCCCN(CCCO)CCCCCCCC(=O)OC(COCCCCCC)COCCCCCC [A19]	110.1 nm	88.00%	0.0923										4.77E+09	3.69E+09	7.33E+08
CCCCC/C=C/C/C=C/CCCCCCCCN(CCCO)CCCCCCCC(=O)OC(COCCCCCC)COCCCCCC [A15]													8.78E+08		
CCCCCCCCCCCOC(=O)CCCCCN(CCCCCCCC(=O)OC(COCCCCCC)COCCCCCC)CCCNc1c(NC)c(=O)c1=O [A27]	94.16 nm	96.69%	0.13										1.04E+09	1.34E+09	3.41E+08
CCCCCCCCCCCOC(=O)CCCCCN(CCO)CCCCCC(=O)OCCCCCCCCCCC [A3, reference compound]	140.6 nm	81.47%	0.120				60.3	12.1	69.8	11.9	35.9	13.5			
CCCCCCOCC(COCCCCCC)OC(=O)CCCCCCCN(CCCO)CCCCCCCCCCCC(=O)OC(COCC)COCC [A26]	120.3 nm	83.56%	0.064												
